# Assay results published in patent publication US11779625B2, “Composition and application thereof in preparing product for protecting mitochondria” (INFINITUS (CHINA) COMPANY LTD., priority 2021, dated 2023).
# “Also recorded” adds a separate entry of the source.
# How the values were obtained:
# Slc25a46−/− mice [1] = assay: NAMPT enzyme activity in liver tissues (ELISA kit); type: in vivo, mouse; conditions: intragastric every day for 10 days, Example 400, Comparative example 1 100, 2 244, 3 56, 4 500 mg/kg
# Description: A certain amount of liver tissues of the mice were homogenized, and a supernatant was taken. […] Marker wells, blank wells and sample wells were provided, 50 μL of markers with different concentrations were added into the marker wells, 50 μL of to-be-tested sample was added into the sample wells, and 50 μL of sample diluent was added into the blank wells. […] 50 μL of substrate A and 50 μL of substrate B were respectively added into each well, and an OD value of each well at a wavelength of 450 nm was measured within 15 minutes. Data was recorded, and statistical analysis was made with Prism software.
# [2] = system: Slc25a46−/− mouse embryonic fibroblasts; assay: MTT in-vitro cytotoxicity experiment (cell morphology and viability), Slc25a46−/− cells; type: cell-based; conditions: 24 hours; for effect on cell viability/growth (MTT): Slc25a46−/− cells
# Description: (§1) The MEF cells were derived from wild-type fetal mice (WT) and Slc25a46 homozygous fetal mice (Slc25a46−/−). Pregnant mice were anesthetized and killed, and dissected to obtain mouse embryos, and bodies of fetal mice were obtained, and washed with PBS for 3 times. Clean mouse embryonal tissues were transferred into a culture dish, and cut into pieces, 2 mL of trypsin was added into the tissue pieces, and continuously cut into pieces for several minutes. Then, 5 mL of trypsin was added into the culture dish above, and blown up and down with a straw vigorously, and the culture dish was put into an incubator for incubation for 20 minutes to 30 minutes. The tissues cut into pieces were taken out of the incubator, and added with about 20 mL of MEF medium. A tissue mixture was transferred into each flask and placed into an incubator for overnight incubation. Then, growth of fibroblasts was observed regularly and the culture medium was replaced. When the fibroblasts covered 90% of the culture flask, the mouse embryonic fibroblasts were collected for subsequent experiment.
# (§2) 100 uL of WT mouse cells and Slc25a46−/− mouse cells with a cell concentration of 3.5×10^5 cells/mL were inoculated into a 96-well plate, and cultured in a CO2 incubator at 37° C. for 24 hours. […] An absorbance at 570 nm was detected with a multi-functional microplate scanner, and effects of test solutions with different concentrations on cell viability were calculated with a blank control as 100%.
# Slc25a46−/− mice [3] = assay: SOD enzyme activity in liver tissues after intragastric intervention; type: in vivo, mouse; conditions: intragastric every day for 10 days, Example 400, Comparative example 1 100, 2 244, 3 56, 4 500 mg/kg
# Description: Animal experimental subjects were Slc25a46 knockout (Slc25a46−/−) mice of 1 month old, which were divided into a blank solvent control group (3 mice) and experimental groups (4 mice in each group). Under a same SPF level, the mice were fed with a full-nutrient feed prepared according to an AIN93G formula of Jiangsu Xietong Biology Co., Ltd., and subjected to intragastric administration every day, which lasted for a period of 10 days. […] The blank solvent control group was administered intragastrically with solvent water. After the intragastric administration experiment, brain tissues and liver tissues of the mice were collected for physiological and biochemical detections respectively, and an oxidative stress level and an ability of delaying aging were analyzed.
# 9 times volume of ice normal saline was added according to a ratio of a tissue weight (g) to a tissue volume (ml) of 1:9, and the tissues were cut into pieces with a surgical scissor, prepared into 10% tissue homogenate with a homogenizer (the homogenation lasted 10 seconds once, and was continuously carried out for 3 times to 5 times at intervals of 5 seconds on ice), and centrifuged at 2500 rpm to 3000 rpm for 10 minutes. A supernatant was taken for subsequent determination. […]
# [4] = system: WT mouse embryonic fibroblasts; assay: MTT in-vitro cytotoxicity experiment (cell morphology and viability), WT cells; type: cell-based; conditions: 24 hours; for effect on cell viability/growth (MTT): WT cells
# Description: as §1, §2
# [5] = high concentration (1,000 μg/mL to 2,000 μg/mL)
structure (smiles),measurement,setting,value
"NC(=O)c1cccnc1 [Comparative example 4, nicotinamide]",NAMPT enzyme activity-Liver tissue,Slc25a46−/− mice [1],0.32 ± 0.01 ng/mg protein
same,effect on cell morphology,"[2]; Slc25a46−/− MEF cells, up to 2,000 μg/mL",no effect on the cell morphology
same,effect on cell viability/growth (MTT),"[2]; 125 μg/mL to 2,000 μg/mL",no effect on the viability of the Slc25a46−/− cells and a viability of the WT cells
same,effect on cell viability/growth (MTT),[2]; [5],"promotes growth of the Slc25a46−/− cells and the WT cells, without a concentration effect"
same,SOD enzyme activity-Liver tissue,Slc25a46−/− mice [3],2.22 ± 0.02 U/mgprot
same,effect on cell morphology,"[4]; WT MEF cells, up to 2,000 μg/mL",no effect on the cell morphology
same,effect on cell viability/growth (MTT),"[4]; 125 μg/mL to 2,000 μg/mL",no effect on the viability of the Slc25a46−/− cells and a viability of the WT cells
same,effect on cell viability/growth (MTT),[4]; [5],"promotes growth of the Slc25a46−/− cells and the WT cells, without a concentration effect; also recorded: promote proliferation of the WT cells"
